# In article PMC9448382, “Fluorosulfate-containing pyrazole heterocycles as selective BuChE inhibitors: structure-activity relationship and biological evaluation for the treatment of Alzheimer’s disease” (Journal of Enzyme Inhibition and Medicinal Chemistry, 2022):
# Entries after “also recorded” stand apart in the source; their conditions may differ.
# What was measured:
# eqBuChE = target: T1, eqBuChE (Equus caballus, UniProt P81908); assay: Kinetic study of eqBuChE inhibition; format: biochemical, horse
# T1 construct: BuChE from horse serum (C4290-1KU; Sigma); purchased Sigma C4290-1KU; host or cells: horse serum
# T1 sequence (P81908 whole entry): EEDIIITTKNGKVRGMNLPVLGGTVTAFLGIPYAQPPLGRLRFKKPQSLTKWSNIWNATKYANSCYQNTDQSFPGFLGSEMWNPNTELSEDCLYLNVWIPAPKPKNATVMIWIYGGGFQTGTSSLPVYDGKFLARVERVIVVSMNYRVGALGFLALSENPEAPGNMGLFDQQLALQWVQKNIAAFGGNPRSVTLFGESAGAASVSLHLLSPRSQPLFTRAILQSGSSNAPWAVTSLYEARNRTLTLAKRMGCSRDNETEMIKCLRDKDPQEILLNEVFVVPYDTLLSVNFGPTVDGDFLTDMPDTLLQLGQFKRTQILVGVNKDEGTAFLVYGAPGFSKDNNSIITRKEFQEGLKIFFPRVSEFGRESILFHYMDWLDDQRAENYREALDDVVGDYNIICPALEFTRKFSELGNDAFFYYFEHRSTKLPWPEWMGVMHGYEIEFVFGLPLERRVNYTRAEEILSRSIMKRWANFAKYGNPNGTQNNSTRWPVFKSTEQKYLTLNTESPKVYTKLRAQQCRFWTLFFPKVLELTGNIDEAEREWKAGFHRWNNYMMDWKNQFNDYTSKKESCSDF
# Description: The same test settings were used for kinetic studies, with six concentrations of substrate (0.1‒1 mM) and four concentrations of inhibitor (0‒1.6 µM). The effect of different doses of compound K3 on BuChE catalytic activity at 37 °C was also investigated. The final concentration of enzyme was changed (0‒0.18 U/mL) under the same test conditions as indicated in the assay methodology. For the assessment of reversible and irreversible inhibitor binding at enzyme, different concentrations of compound K3 (0, 0.4, 0.8, and 1.6 µM) were utilised.
# AChE from electric eel = target: T2, AChE from electric eel (Electrophorus electricus, UniProt O42275); assay: EeAChE inhibition assay (Ellman's method); format: biochemical; conditions: read-out: AChE % inhibition at 20 µM, 20 µM, na = no inhibitory activity at 20 µM
# T2 construct: AChE from electric eel (C3389-500UN; Sigma); purchased Sigma C3389-500UN
# T2 sequence (O42275 24-633): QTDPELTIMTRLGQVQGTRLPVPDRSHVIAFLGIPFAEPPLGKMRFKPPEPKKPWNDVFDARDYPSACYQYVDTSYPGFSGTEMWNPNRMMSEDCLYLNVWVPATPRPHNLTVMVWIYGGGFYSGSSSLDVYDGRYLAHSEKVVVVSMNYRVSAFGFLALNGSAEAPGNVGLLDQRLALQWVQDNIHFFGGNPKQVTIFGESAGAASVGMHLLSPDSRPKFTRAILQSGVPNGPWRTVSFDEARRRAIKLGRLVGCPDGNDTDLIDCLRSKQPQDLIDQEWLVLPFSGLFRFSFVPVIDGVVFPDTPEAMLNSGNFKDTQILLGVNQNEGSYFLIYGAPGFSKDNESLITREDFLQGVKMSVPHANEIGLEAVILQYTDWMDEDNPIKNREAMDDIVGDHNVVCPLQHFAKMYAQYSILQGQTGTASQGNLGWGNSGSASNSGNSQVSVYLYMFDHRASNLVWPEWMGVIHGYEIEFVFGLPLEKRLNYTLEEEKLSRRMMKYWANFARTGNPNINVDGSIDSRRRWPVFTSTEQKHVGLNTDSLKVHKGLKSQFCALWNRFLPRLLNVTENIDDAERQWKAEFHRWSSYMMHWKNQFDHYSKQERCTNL
# Description: (§1) According to Ellman's method, assays were carried out on AChE from electric eel (C3389-500UN; Sigma) and BuChE from horse serum (C4290-1KU; Sigma). On a final volume of 500 μL, the experiment was carried out in 48-well plates. EeAChE or eqBuChE, 0.036 U/mL, and 0.1 M pH 8 phosphate buffer were added to each well. At 37 °C, they were pre-incubated for 20 min at various chemical concentrations. […] Along with the enzymatic breakdown of ACh or BuCh, the DTNB creates the yellow anion 5-thio-2-nitrobenzoic acid. In a Biotek Synergy HTX Multi-Mode reader, changes in absorbance were detected at 410 nm. Inhibition curves were used to calculate the IC50 values (log inhibitor concentration vs percent of inhibition). The same conditions were used in a control experiment without the inhibitor, and the blank comprised buffer, DMSO, DTNB, and substrate.
# (§2) The IC50 values were calculated by SPSS 17.0.
# male ICR mice [1] = assay: In vivo hepatotoxicity evaluation; parameters: species or system mouse
# Description: . Mice were fasted for 24 h. Intragastrically, the combination was given at a dose of 30 mg/kg body weight with the same quantity of vehicle (po). […] A biochemical analyser was used to process the data (Hitachi 7020, Japan). Mice were slaughtered and livers were obtained for immunohistochemical morphological evaluation after the last sample of postglobular blood. We isolated two 3-mm sections of each liver from the hilum to the edge of the left lateral lobe using an ultra-thin semi-automatic microtome (LeicaRM2245, Germany), immediately placed them in 10% buffered formaldehyde, fixed them for 2 days, and embedded them in paraffin blocks using a paraffin-embedding station (LeicaEG1150H, Germany). Subsequently, five […] sections were prepared from these paraffin sections, deparaffinized, stained with haematoxylin and eosin (HE) or using the periodic acid-Schiff glycogen staining method.
# male ICR mice [2] = conditions: Day 3 to Day 14
# Description: The National Institutes of Health Guide for the Care and Use of Laboratory Animals was followed for all experiments. The Animal Care and Use Committee of Anhui Medical University adopted the Measures for the Care and Treatment of Laboratory Animals. In Anhui Medical University's animal centre, male ICR mice were employed (Hefei). […] Throughout all of the experiments, the room's ambient temperature and relative humidity (50%) remained constant. […] 8‒10 animals were used in each study group. The experimental time was from 08: 00 to 14: 00, and the mice were sacrificed by cervical dislocation shortly after the experiment ended. […] Aβ1–42 aggregation was induced by dissolving the Aβ1–42 peptide in DMSO as a stock solution of 5 mM and incubating it in saline at a final concentration of 2 mg/mL for 24 h at 37 °C.
# hBuChE from human serum = target: T3, hBuChE from human serum (Homo sapiens, UniProt P06276); assay: hBuChE inhibition assay; format: biochemical; conditions: mean ± SEM
# T3 construct: purchased Sigma B4186; host or cells: human serum (per result head)
# T3 sequence (P06276 29-602): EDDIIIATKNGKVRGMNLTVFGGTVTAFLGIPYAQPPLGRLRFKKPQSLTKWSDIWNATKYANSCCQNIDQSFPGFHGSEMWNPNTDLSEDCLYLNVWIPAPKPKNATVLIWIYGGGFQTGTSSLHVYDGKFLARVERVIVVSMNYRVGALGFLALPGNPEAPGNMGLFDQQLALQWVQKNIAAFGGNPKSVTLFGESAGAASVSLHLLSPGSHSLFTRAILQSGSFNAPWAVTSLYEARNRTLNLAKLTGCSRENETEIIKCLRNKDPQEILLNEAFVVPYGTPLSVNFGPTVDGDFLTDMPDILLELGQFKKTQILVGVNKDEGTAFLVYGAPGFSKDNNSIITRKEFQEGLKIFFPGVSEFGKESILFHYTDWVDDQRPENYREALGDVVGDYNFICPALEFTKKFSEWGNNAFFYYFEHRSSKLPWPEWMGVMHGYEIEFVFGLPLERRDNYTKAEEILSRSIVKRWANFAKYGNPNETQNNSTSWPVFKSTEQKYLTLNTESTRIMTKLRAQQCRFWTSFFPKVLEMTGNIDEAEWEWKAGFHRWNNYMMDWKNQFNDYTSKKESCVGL
# Description: (§3) With 0.1 M pH 8 PBS, a DTNB solution (5 μM) was produced. Dissolve the test compound in DMSO to prepare a concentration of 2 × 10^−1 M stock solution. The solution was diluted in ethanol to five concentrations of 200, 100, 10, 1 and 0.1 μM, respectively. Measurement was carried out with 96-well plates, add 40 μL buffer, 10 μL test compound at a series of concentrations, and 10 μL AChE/BuChE in sequence. The mixture was then incubated at 37 °C for 10 min. Then add 20 μL DTNB, incubation at 37 °C for 10 min. […] For the blank value, 10 μL of ethanol was used instead of the inhibitor solution. The percentage of enzyme activity and the logarithm of compound concentration were used to express the inhibitory activity of compounds. IC50 was calculated by SPSS17.0.
# ICR mice = assay: In vivo acute toxicity evaluation
# Text: A total of 20 mice weighing 20‒25 g (F: M = 1: 1) were randomly allocated into two groups: control (n = 10) and experimental (n = 10). […] For two weeks, the mice's behaviour, appearance, and body weight changes were examined and documented. GraphPadPrism8.0 software was used to compare and summarise the body weights of the mice in the control and experimental groups.
# PC12 cells = assay: Neuroprotection assay against H2O2-induced PC12 cell injury; format: cell-based; conditions: Rattus norvegicus
# Description: PC12 cells were distributed at a density of 1 × 10^4 cells per well into 96-well microtiter plates. At time zero, cells were treated with a range of compounds K3 concentrations (1‒25 µM) and kept for 3 h after being incubated overnight. The media were then changed with new media containing the medication as well as a cytotoxic stimulus in the form of 100 µM H2O2, which was left for another 24 h. The MTT assay was used to determine cell viability after 24 h. In the cells, 20 µL of 0.5 mg/mL MTT reagent was applied and incubated for 4 h. The cell culture was removed after 4 h, and 150 µL DMSO was added to dissolve the formazan. The optical density was measured at 492 nm (OD492) on the Biotek Synergy HTX Multi-Mode reader. Results were adjusted considering OD measured in the blank.
# BuChE from horse serum = target: T4, BuChE from horse serum (Equus caballus, UniProt P81908); assay: biochemical; format: biochemical
# T4 construct: BuChE from horse serum (C4290-1KU; Sigma); purchased Sigma C4290-1KU; host or cells: horse serum
# T4 sequence (P81908 whole entry): as the sequence (P81908 whole entry) above
# Description: as §1, §2
# Aβ1–42 = assay: Brain Aβ1–42 total amount by mouse ELISA kit; format: in vivo; conditions: mice, Aβ1–42 icv model, K3 10 mg/kg po, donepezil 15 mg/kg po
# Description: In the Aβ1–42 oligomeric damage experiment, all mice were sacrificed after the behavioural research was completed, and the brains were collected to assess the total content of Aβ1–42 using a mouse ELISA kit. Each brain tissue sample was thoroughly homogenised in a grinder with 10 times PBS (pH = 7.4 ± 0.1) before being centrifuged for 5 min at 5000×g. The supernatant was separated for use. The detection technique followed the directions exactly, and the standard curve was created. Brain tissue Aβ1–42 content was calculated according to the linear regression equation. All values were expressed as mean ± SEM using GraphPadPrism8.0 software.
# [3] = target: T5, recombinant human AChE (hAChE) (Homo sapiens, UniProt P22303); assay: hAChE inhibition assay; format: biochemical
# T5 construct: purchased Sigma C1682
# T5 sequence (P22303 32-614): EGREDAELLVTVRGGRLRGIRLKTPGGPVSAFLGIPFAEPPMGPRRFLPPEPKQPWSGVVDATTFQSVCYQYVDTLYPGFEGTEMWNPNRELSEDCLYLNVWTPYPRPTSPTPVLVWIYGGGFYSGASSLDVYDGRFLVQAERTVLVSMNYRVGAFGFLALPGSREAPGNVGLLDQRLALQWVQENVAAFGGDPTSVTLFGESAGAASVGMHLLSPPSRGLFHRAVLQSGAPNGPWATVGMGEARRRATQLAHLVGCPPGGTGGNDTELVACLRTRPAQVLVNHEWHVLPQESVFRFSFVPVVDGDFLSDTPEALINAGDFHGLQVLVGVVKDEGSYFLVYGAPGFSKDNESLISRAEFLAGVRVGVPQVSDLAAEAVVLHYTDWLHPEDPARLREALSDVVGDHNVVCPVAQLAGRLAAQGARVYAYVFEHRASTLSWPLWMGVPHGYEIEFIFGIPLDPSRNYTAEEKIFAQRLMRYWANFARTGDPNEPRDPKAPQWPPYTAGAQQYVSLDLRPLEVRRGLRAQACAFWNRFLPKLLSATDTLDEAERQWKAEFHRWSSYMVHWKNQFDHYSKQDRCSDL
# Description: as §3
# [4] = ICR mice, intragastric, 1.0 g/kg, 14 days
smiles,measurement,setting,value
O=S(=O)(F)Oc1cc(-c2ccccc2)nn1-c1ccc(Cl)cc1 [Compound K3],reversibility of BuChE inhibition,"eqBuChE; K3 0, 0.4, 0.8, 1.6 μM, enzyme 0‒0.18 U/mL",reversible
same,type of BuChE inhibition,eqBuChE; Lineweaver-Burk plots,"mixed and non-competitive; also recorded: mixed, and non-competitive"
same,Ki,"eqBuChE; Lineweaver-Burk secondary plots, read-out: dissociation constant Ki",770 nM
same,inhibition at 20 µM,AChE from electric eel,26.3 ± 1.4%
same,serum ALT and AST levels vs vehicle group,"male ICR mice [1]; 30 mg/kg po, 8, 22 and 36 h after single dosing",No significant difference
same,liver histomorphology,"male ICR mice [1]; 30 mg/kg, 36 h after administration",no core necrosis or evident steatosis
same,effect on body weight during administration,male ICR mice [2]; 10 mg/kg po,no effect on body weight increase
same,effect on Aβ1–42-induced cognitive dysfunction (MWM),"male ICR mice [2]; Aβ1–42 10 µg icv, K3 10 mg/kg po, donepezil 15 mg/kg po",significantly improved
same,IC50,hBuChE from human serum,6590 ± 3540 nM
same,differences in body weight changes vs vehicle group,ICR mice; [4],not significant
same,tolerability in single-dose acute toxicity assay,ICR mice; [4],well tolerated
same,tolerated dose,"ICR mice; mice, in vivo safety experiments",1000 mg/kg
same,viability at 5 µM,"PC12 cells; PC-12, 100 µM H2O2, compound 5 µM",55.9%
same,viability at 25 µM,"PC12 cells; PC-12, 100 µM H2O2, compound 25 µM",69.3%
same,IC50,BuChE from horse serum,790 ± 320 nM
same,decrease of Aβ1–42 peptides in brain,Aβ1–42,17.6%
same,inhibition at 20 µM,[3],31.6 ± 5.74%
